Data reported in ChEMBL document CHEMBL3244164, “Synthesis and analgesic activity of 1,3-dihydro-3-(substituted phenyl)imidazo[4,5-b]pyridin-2-ones and 3-(substituted phenyl)-1,2,3-triazolo[4,5-b]pyridines” (J Med Chem, 1978).
The source made the active and inactive calls.

Key:
[1] = test system: Mus musculus; experiment: Analgesic activity in naloxone treated mouse assessed as withdrawal latency at 12.5 to 75 mg/kg, po; format: functional, organism-based
[2] = test system: Mus musculus; experiment: Analgesic activity in mouse assessed as withdrawal latency at 12.5 to 75 mg/kg, po by Haffner tail clamp method; format: functional, organism-based
[3] = test system: Rattus norvegicus; experiment: Analgesic activity in Sprague-Dawley rat brewer's yeast treated foot assessed as response threshold at 8 to 16 mg/kg, po; format: functional; conditions: dose mg/kg 8-16
[4] = test system: Rattus norvegicus; experiment: Analgesic activity in Sprague-Dawley rat normal foot assessed as response threshold at 8 to 16 mg/kg, po; format: functional; conditions: dose mg/kg 8-16
[5] = test system: Rattus norvegicus; experiment: Analgesic activity in Sprague-Dawley rat brewer's yeast treated foot assessed as response threshold at 8 mg/kg, po; format: functional
[6] = test system: Rattus norvegicus; experiment: Analgesic activity in Sprague-Dawley rat normal foot assessed as response threshold at 32 mg/kg, po; format: functional
[7] = test system: Rattus norvegicus; experiment: Antiinflammatory activity in Sprague-Dawley rat assessed as inhibition of carrageenan-induced paw edema at 30 mg/kg, po; format: functional
[8] = test system: Rattus norvegicus; experiment: Antiarthritic activity in Lewis rat assessed as inhibition of adjuvant-induced paw swelling at 50 mg/kg, po qd for 13 days measured on day 14; format: functional
[9] = test system: Rattus norvegicus; experiment: Analgesic activity in Sprague-Dawley rat normal foot assessed as response threshold at 16 to 32 mg/kg, po; format: functional; conditions: dose mg/kg 16-32
[10] = test system: Rattus norvegicus; experiment: Analgesic activity in Sprague-Dawley rat brewer's yeast treated foot assessed as response threshold at 16 to 32 mg/kg, po; format: functional; conditions: dose mg/kg 16-32
[11] = test system: Rattus norvegicus; experiment: Analgesic activity in Sprague-Dawley rat assessed as increase in mean reaction time at 5 mg/kg, po after 5 hrs relative to control; format: functional
[12] = test system: Rattus norvegicus; experiment: Analgesic activity in Sprague-Dawley rat assessed as increase in mean reaction time at 10 mg/kg, po after 2 hrs relative to control; format: functional
[13] = test system: Rattus norvegicus; experiment: Analgesic activity in Sprague-Dawley rat assessed as increase in mean reaction time at 20 mg/kg, po after 5 hrs relative to control; format: functional
[14] = test system: Rattus norvegicus; experiment: Analgesic activity in Sprague-Dawley rat assessed as increase in mean reaction time at 10 mg/kg, po after 3 hrs relative to control; format: functional
[15] = test system: Rattus norvegicus; experiment: Analgesic activity in Sprague-Dawley rat assessed as increase in mean reaction time at 20 mg/kg, po after 2 hrs relative to control; format: functional
[16] = test system: Rattus norvegicus; experiment: Analgesic activity in Sprague-Dawley rat assessed as increase in mean reaction time at 10 mg/kg, po after 5 hrs relative to control; format: functional
[17] = test system: Rattus norvegicus; experiment: Analgesic activity in Sprague-Dawley rat assessed as increase in mean reaction time at 20 mg/kg, po after 4 hrs relative to control; format: functional
[18] = test system: Rattus norvegicus; experiment: Analgesic activity in Sprague-Dawley rat assessed as increase in mean reaction time at 10 mg/kg, po after 4 hrs relative to control; format: functional
[19] = test system: Rattus norvegicus; experiment: Analgesic activity in Sprague-Dawley rat assessed as increase in mean reaction time at 5 mg/kg, po after 2 hrs relative to control; format: functional
[20] = test system: Rattus norvegicus; experiment: Analgesic activity in Sprague-Dawley rat assessed as increase in mean reaction time at 10 mg/kg, po after 1 hr relative to control; format: functional
[21] = test system: Rattus norvegicus; experiment: Analgesic activity in Sprague-Dawley rat assessed as increase in mean reaction time at 20 mg/kg, po after 3 hrs relative to control; format: functional
[22] = test system: Rattus norvegicus; experiment: Analgesic activity in Sprague-Dawley rat assessed as increase in mean reaction time at 5 mg/kg, po after 3 hrs relative to control; format: functional
[23] = test system: Rattus norvegicus; experiment: Analgesic activity in Sprague-Dawley rat assessed as increase in mean reaction time at 5 mg/kg, po after 1 hr relative to control; format: functional
[24] = test system: Rattus norvegicus; experiment: Analgesic activity in Sprague-Dawley rat assessed as increase in mean reaction time at 20 mg/kg, po after 1 hr relative to control; format: functional
[25] = test system: Rattus norvegicus; experiment: Analgesic activity in Sprague-Dawley rat assessed as increase in mean reaction time at 5 mg/kg, po after 4 hrs relative to control; format: functional

C=CCn1c(=O)n(-c2ccc3c(c2)OCO3)c2ncccc21
Activity [1]: inactive
Activity [2]: Active

CCCn1c(=O)n(-c2ccc3c(c2)OCO3)c2ncccc21
Activity [3]: >25 mm
Activity [4]: >50 mm

CC(C)n1c(=O)n(-c2ccc3c(c2)OCO3)c2ncccc21
Activity [5]: >34 mm
Activity [4]: >50 mm

CN1CC[C@]23c4c5ccc(O)c4O[C@H]2[C@@H](O)C=C[C@H]3[C@H]1C5 [MORPHINE]
Activity [6]: <40 mm
Activity [5]: >34 mm
Activity [4]: >50 mm

CCCCC1C(=O)N(c2ccccc2)N(c2ccccc2)C1=O [PHENYLBUTAZONE]
inhibition in vivo at 30 mg/kg [7]: 39%
inhibition in vivo at 50 mg/kg [8]: 78%

O=c1n(CC2CC2)c2cccnc2n1-c1ccc2c(c1)OCO2
Activity [9]: >40 mm
Activity [10]: >25 mm

Cc1ccc(-n2c(=O)[nH]c3cccnc32)cc1
Activity [9]: >40 mm
Activity [10]: >25 mm

O=c1[nH]c2cccnc2n1-c1ccc2c(c1)OCO2
Time [11]: 0.4 s
Time [12]: 3.9 s
Time [13]: 18.3 s
Time [14]: 2.8 s
Time [15]: 15 s
Time [16]: -0.2 s
Activity [1]: inactive
Activity [2]: Active
Time [17]: 20 s
Time [18]: 2.3 s
Time [19]: 2.1 s
Time [20]: 2 s
Activity [5]: >34 mm
Time [21]: 20.4 s
Time [22]: -0.1 s
Activity [4]: >50 mm
Time [23]: 1.5 s
Time [24]: 6 s
Time [25]: 1.3 s
inhibition in vivo at 30 mg/kg [7]: 37%
inhibition in vivo at 50 mg/kg [8]: 68.3%

C=C(Cl)Cn1c(=O)n(-c2ccc3c(c2)OCO3)c2ncccc21
Activity [9]: >40 mm
Activity [10]: >25 mm
